Measurements as given in US20150164762A1, “USE OF ETHANOLAMINE PHOSPHATE” (priority 2012, published 2015).

Test system: BEAS-2B
Test: Comprehensive gene expression analysis with Whole Human Genome DNA microarray after EP treatment
Type: cell-based
Procedure: Cells of the established normal human airway epithelial cell line BEAS-2B were used in the experiment. These cells were expansively cultured in 10% FBS RPMI-1640, and seeded at a density of 1×10^5/cm^2 on a 24-well plate. After 24 hours 0.1% FBS RPMI-1640 was substituted, and EP was administered to a final concentration of 0 or 1 mM (n=4). After 24 hours, the cells were used as the DNA microarray samples. RNA was extracted using a QIAGEN RNeasy Mini Kit. The DNA microarray test was performed using a Whole Human Genome DNA microarray 4×44K (Agilent), and the necessary labeling reagents and the like for the DNA microarray test were all from Agilent. The DNA microarray test data were analyzed statistically with GeneSpring (Agilent) dedicated analysis software, and gene function analysis (Gene Ontology (GO) analysis) was performed based on differential expression. The purpose of the GO analysis is to determine stochastically the degree to which gene sets with statistically significant differential expression correspond to known functional classification gene sets. […] The p-value is calculated according to the following formula.

[1] = probe A_23_P1361, NM_002860, EP vs control
[2] = probe A_23_P5392, 1 mM EP, 24 h
[3] = probe A_23_P8961, NM_000880, EP vs control
[4] = probe A_23_P15247, 1 mM EP, 24 h
[5] = probe A_23_P16523, NM_004864, EP vs control
[6] = probe A_23_P21134, 1 mM EP, 24 h
[7] = probe A_23_P23960, 1 mM EP, 24 h
[8] = probe A_23_P25354, 1 mM EP, 24 h
[9] = probe A_23_P28625, 1 mM EP, 24 h

NCCOP(=O)(O)O [EP, Ethanolamine phosphate]
R*: Ratio to control (P2RX7, probe A_23_P25354): 0.561 times | log2 [ratio] (P2RX7, probe A_23_P25354): −0.834 | R*: Ratio to control (P2RX7, probe A_24_P319113): 0.586 times | log2 [ratio] (P2RX7, probe A_24_P319113): −0.772 | R*: Ratio to control (PERP, probe A_23_P214950): 0.521 times | log2 [ratio] (PERP, probe A_23_P214950): −0.941 | R*: Ratio to control (PHLDA3, probe A_23_P62959): 0.271 times | log2 [ratio] (PHLDA3, probe A_23_P62959): −1.884 | R*: Ratio to control (PLK1, probe A_23_P118174): 2.447 times | log2 [ratio] (PLK1, probe A_23_P118174): 1.291 | R*: Ratio to control (PLK1, probe A_24_P313504): 1.939 times | log2 [ratio] (PLK1, probe A_24_P313504): 0.955 | R*: Ratio to control (PMAIP1, probe A_23_P207999): 0.344 times | log2 [ratio] (PMAIP1, probe A_23_P207999): −1.540 | R*: Ratio to control (PML, probe A_23_P358944): 0.586 times | log2 [ratio] (PML, probe A_23_P358944): −0.770 | R*: Ratio to control (PPAP2B, probe A_23_P201808): 1.919 times | log2 [ratio] (PPAP2B, probe A_23_P201808): 0.941 | R*: Ratio to control (ROBO4, probe A_23_P104881): 1.785 times | log2 [ratio] (ROBO4, probe A_23_P104881): 0.836 | R*: Ratio to control (ROBO4, probe A_23_P344421): 1.633 times | log2 [ratio] (ROBO4, probe A_23_P344421): 0.707 | R*: Ratio to control (RTN4, probe A_23_P56933): 1.510 times | log2 [ratio] (RTN4, probe A_23_P56933): 0.594 | R*: Ratio to control (SEMA4D, probe A_24_P261169): 0.558 times | log2 [ratio] (SEMA4D, probe A_24_P261169): −0.842 | R*: Ratio to control (SEPT4, probe A_23_P207003): 0.503 times | log2 [ratio] (SEPT4, probe A_23_P207003): −0.990 | R*: Ratio to control (SKP2, probe A_23_P156310): 1.531 times | log2 [ratio] (SKP2, probe A_23_P156310): 0.615 | R*: Ratio to control (SOX7, probe A_23_P169738): 0.362 times | log2 [ratio] (SOX7, probe A_23_P169738): −1.464 | R*: Ratio to control (SOX7, probe A_23_P306987): 0.338 times | log2 [ratio] (SOX7, probe A_23_P306987): −1.566 | R*: Ratio to control (SOX7, probe A_24_P226782): 0.607 times | log2 [ratio] (SOX7, probe A_24_P226782): −0.720 | R*: Ratio to control (SST, probe A_23_P252817): 0.666 times | log2 [ratio] (SST, probe A_23_P252817): −0.587 | R*: Ratio to control (TACSTD2, probe A_23_P149529): 1.507 times | log2 [ratio] (TACSTD2, probe A_23_P149529): 0.591 | R*: Ratio to control (TGFBR2, probe A_23_P211957): 1.634 times | log2 [ratio] (TGFBR2, probe A_23_P211957): 0.708 | R*: Ratio to control (TGFBR2, probe A_23_P337242): 1.630 times | log2 [ratio] (TGFBR2, probe A_23_P337242): 0.705 | R*: Ratio to control (TNFRSF17, probe A_23_P37736): 2.525 times | log2 [ratio] (TNFRSF17, probe A_23_P37736): 1.336 | R*: Ratio to control (VEGFC, probe A_23_P167096): 1.637 times | log2 [ratio] (VEGFC, probe A_23_P167096): 0.711 | R*: Ratio to control (WARS2, probe A_23_P74380): 1.594 times | log2 [ratio] (WARS2, probe A_23_P74380): 0.673 | R*: Ratio to control (WDR12, probe A_23_P28625): 1.676 times | log2 [ratio] (WDR12, probe A_23_P28625): 0.745 | R*: Ratio to control (ZFPM2, probe A_23_P168909): 1.678 times | log2 [ratio] (ZFPM2, probe A_23_P168909): 0.746 | ALDH18A1 gene expression, R* ratio to control [1]: 1.460 times | ALDH18A1 gene expression, log2 [ratio] [1]: 0.546 | TP53I3 expression R*: Ratio to control [2]: 0.423 times | TP53I3 expression log2 [ratio] [2]: −1.241 | IL7 gene expression, R* ratio to control [3]: 0.103 times | IL7 gene expression, log2 [ratio] [3]: −3.273 | C16orf5 expression R*: Ratio to control [4]: 0.519 times | C16orf5 expression log2 [ratio] [4]: −0.947 | GDF15 gene expression, R* ratio to control [5]: 0.104 times | GDF15 gene expression, log2 [ratio] [5]: −3.265 | DDIT3 expression R*: Ratio to control [6]: 0.210 times | DDIT3 expression log2 [ratio] [6]: −2.249 | BLOC1S2 expression R*: Ratio to control [7]: 0.398 times | BLOC1S2 expression log2 [ratio] [7]: −1.336 | P2RX7 expression R: Ratio to control [8]: 0.661 times | P2RX7 expression log2 [ratio] [8]: −0.834 | WDR12 expression R*: Ratio to control [9]: 1.676 times | WDR12 expression log2 [ratio] [9]: 0.745 | BDH1 gene expression, R* ratio to control (probe A_23_P29754, NM_203314, EP vs control): 1.462 times
